What was measured:
[1] = tested on: HT29 cells, ERK1/2 western blot, 24 h; assay: total ERK1/2 protein level change, either direction, late-stage follow-up, counter-screen for KLF5 inhibitor project, HT29 cells, chemiluminescent western blot, powder samples (AID 588656); settings: measured here: ERK1/2 protein fold change vs DMSO; at 10 µM
[2] = target: Mitogen-activated protein kinase 1 (Homo sapiens) (UniProt P28482); assay: as above; settings: HT29 cells, ERK1/2 western blot, 24 h; at 10 µM; stronger effect = higher value
Mitogen-activated protein kinase 1 (Homo sapiens), sequence (P28482 whole entry, looked up): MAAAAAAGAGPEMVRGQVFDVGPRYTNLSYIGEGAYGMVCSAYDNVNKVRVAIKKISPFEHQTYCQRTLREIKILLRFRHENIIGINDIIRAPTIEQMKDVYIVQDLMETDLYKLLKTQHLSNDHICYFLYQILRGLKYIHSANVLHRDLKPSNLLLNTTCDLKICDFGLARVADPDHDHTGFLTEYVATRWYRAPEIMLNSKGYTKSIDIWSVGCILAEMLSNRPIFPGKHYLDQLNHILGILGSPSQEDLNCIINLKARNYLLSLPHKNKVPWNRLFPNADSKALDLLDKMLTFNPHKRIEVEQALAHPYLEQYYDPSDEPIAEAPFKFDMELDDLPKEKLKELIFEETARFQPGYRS

CN(C(=O)CNC(=O)/C=C/c1cccc(Cl)c1)C1CCS(=O)(=O)C1 (stereo unspecified)
fold change [1]: 1.97 | inhibition [2]: -96.6%

CN(C(=O)CNC(=O)/C=C/c1cccc(Cl)c1)C1CCS(=O)(=O)CC1
fold change [1]: 1.97 | inhibition [2]: -96.5%

CN(C(=O)COC(=O)/C=C/c1cccc([N+](=O)[O-])c1)C1CCS(=O)(=O)C1 (stereo unspecified)
fold change [1]: 1.46 | inhibition [2]: -46.4%
